Drawing on PubChem BioAssay (NCI), this text covers TGI and GI50 for eight compounds.

Among the test systems are MCF7 breast; HOP-92 NSCLC; SNB-75 CNS; COLO 205 colon; SR leukemia; RPMI-8226 leukemia; NCI-H522 lung; OVCAR-8 ovarian; IGROV1 ovarian; SK-MEL-5 melanoma.
Experiment in all cases: DTP human tumour cell line panel, 48 h

SMILES strings stand for the structures. “And” between values parts separate entries of the source, which are not always exact repeats. Identical values can stand only once.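 Following 48 hours of exposure in 96-well plates, responses at five concentrations were used to interpolate endpoints linearly. GI50 marks 50% less growth. TGI: concentration producing complete growth inhibition.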 *1 amine or outer side, *2 acyl side, *3 side chain or, on linkers, in order; H or OH if unused. Where a SMILES comes first, the peptide text is derived from it. Bridges are numbered along the chain shown (N, C = ends). [ ]: non-standard residue; d: D form. The star is where a group is joined. Phe(3-Me) = Cc1cccc(C[C@H](N)C(=O)O)c1; NH(4-Cl-2-F-phenyl) = Fc1cc(Cl)ccc1N*; Pro(4R-Me) = C[C@H]1CN[C@H](C(=O)O)C1; Hyp = O=C(O)[C@@H]1C[C@@H](O)CN1; aThr = C[C@H](O)[C@H](N)C(=O)O; Pip = O=C(O)[C@@H]1CCCCN1; CO = O=C([*:1])[*:2]

One may read the TGI as the concentration giving total growth inhibition. High values mean lower sensitivity of the cells, low ones greater sensitivity of the cells. A word on the GI50: it is the concentration giving 50% growth inhibition. As to `CCOC(=O)C(Cc1c[nH]c2cc([N+](=O)[O-])ccc12)(NC(C)=O)C(=O)OCC`, the TGI in the assay on MCF7 breast was over 1000 µM; in the assay on HOP-92 NSCLC it was 141 µM; in the assay on SNB-75 CNS, 114 µM; in the assay on COLO 205 colon, over 1000 µM; with SR leukemia, 446 µM; in the assay with NCI-H522 lung it was over 1000 µM. The total growth inhibition concentration (TGI) in the assay with OVCAR-8 ovarian and with IGROV1 ovarian was over 1000 µM in each case. The GI50 is 47.5 µM in the assay with HOP-92 NSCLC; 93.5 µM and 46.8 µM with SNB-75 CNS; over 1000 µM in the assay on COLO 205 colon; 26.3 µM with SR leukemia; 45 µM in the assay with RPMI-8226 leukemia; 30.3 µM and 104 µM in the assay on OVCAR-8 ovarian. For the same compound, the GI50 with IGROV1 ovarian was 176 µM.
`O=C(c1cc(-c2cc3c(cc2C(=O)N2Cc4ccccc4C[C@H]2CN2CCOCC2)OCO3)n2c1CCCC2)N(c1ccccc1)c1ccc(O)cc1`: the GI50 is 3.52 µM in the assay on MCF7 breast; 2.72 µM with HOP-92 NSCLC; 3.61 µM with SNB-75 CNS; 6.71 µM in the assay with COLO 205 colon; 3.09 µM with SR leukemia; 22.9 µM with NCI-H522 lung. The GI50 is 10.6 µM in the assay on OVCAR-8 ovarian, 5.97 µM in the assay with IGROV1 ovarian and 3.78 µM in the assay on SK-MEL-5 melanoma. Moreover, the TGI is over 100 µM in the assay with MCF7 breast; 15 µM with HOP-92 NSCLC; over 100 µM in the assay with SNB-75 CNS; over 100 µM in the assay on COLO 205 colon; over 100 µM with SR leukemia; over 100 µM in the assay on NCI-H522 lung. Also, the figures for the concentration for total growth inhibition (TGI) in the assay with OVCAR-8 ovarian, in the assay on IGROV1 ovarian and in the assay with SK-MEL-5 melanoma were over 100 µM, over 100 µM and 18.6 µM, respectively.
Regarding `O=C1C(Cl)=C(N2CCOCC2)C(=O)c2ccccc21`, the GI50 with MCF7 breast is 3.49 µM; in the assay with HOP-92 NSCLC, 1.52 µM; in the assay on SNB-75 CNS, 14.2 µM; in the assay on COLO 205 colon it was 14.2 µM; in the assay with SR leukemia, 2.77 µM; with RPMI-8226 leukemia, 2.63 µM. Moreover, the GI50 in the assay on NCI-H522 lung was 1.67 µM; in the assay with OVCAR-8 ovarian, 1.6 µM; in the assay on IGROV1 ovarian it was 3.33 µM; with SK-MEL-5 melanoma, 6.82 µM. Besides, the total growth inhibition concentration (TGI) in the assay on MCF7 breast was 17.9 µM; with HOP-92 NSCLC, 3 µM; with SNB-75 CNS it was 27.8 µM; in the assay with COLO 205 colon it was 27.8 µM; with SR leukemia it was 7.87 µM; in the assay with RPMI-8226 leukemia it was 7.87 µM. In addition, the TGI in the assay with NCI-H522 lung was determined as 3.23 µM; with OVCAR-8 ovarian, 3 µM; in the assay on IGROV1 ovarian, 6.74 µM; in the assay on SK-MEL-5 melanoma it was 19.4 µM.
Take `N#CC(C#N)=CN1CCN(C(=O)c2ccccc2)C1=S`: the GI50 is 16.7 µM in the assay on MCF7 breast; 56.8 µM in the assay on HOP-92 NSCLC; over 100 µM with SNB-75 CNS; 18.8 µM in the assay with SR leukemia; 35.3 µM with RPMI-8226 leukemia; 15.9 µM in the assay on NCI-H522 lung. Also, the GI50 in the assay on OVCAR-8 ovarian was 77 µM; with IGROV1 ovarian, 28.2 µM; in the assay on SK-MEL-5 melanoma, 23.3 µM. Also, the TGI was 55.9 µM in the assay on MCF7 breast; over 100 µM in the assay on HOP-92 NSCLC; over 100 µM in the assay on SNB-75 CNS; 79.9 µM in the assay with SR leukemia; over 100 µM in the assay with RPMI-8226 leukemia; 43.7 µM in the assay with NCI-H522 lung. Besides, the concentration for total growth inhibition (TGI) was over 100 µM in the assay on OVCAR-8 ovarian, over 100 µM in the assay on IGROV1 ovarian and 50.1 µM in the assay on SK-MEL-5 melanoma.
Take `Cc1cccc(C[C@H](NC(=O)Nc2ccc(Cl)cc2F)C(=O)N[C@@H]2C(=O)N3C[C@H](O)C[C@H]3C(=O)N3CCCC[C@H]3C(=O)N[C@@H](C)C(=O)N3C[C@H](C)C[C@H]3C(=O)O[C@H]2C)c1` ({NH(4-Cl-2-F-phenyl)-CO}-[Phe(3-Me)][aThr][Hyp][Pip]A[Pro(4R-Me)]; ester 2-C): the concentration for 50% growth inhibition (GI50) in the assay on MCF7 breast was 0.391 µM; in the assay on HOP-92 NSCLC it was 0.525 µM; with SNB-75 CNS, 0.544 µM; with COLO 205 colon, 0.344 µM; in the assay on SR leukemia it was 0.546 µM; in the assay with RPMI-8226 leukemia, 0.128 µM. In addition, the GI50 with NCI-H522 lung was 0.464 µM; in the assay with OVCAR-8 ovarian, 0.435 µM; with IGROV1 ovarian, 0.919 µM; with SK-MEL-5 melanoma, 0.492 µM. In addition, the TGI turned out to be 3 µM in the assay on MCF7 breast; 3.14 µM with HOP-92 NSCLC; 4.8 µM in the assay on SNB-75 CNS; 1.36 µM in the assay with COLO 205 colon; 3.55 µM in the assay with SR leukemia; 1.63 µM with RPMI-8226 leukemia. Further, the TGI was found to be 2.6 µM in the assay on NCI-H522 lung, 15.6 µM in the assay with OVCAR-8 ovarian, 2.98 µM with IGROV1 ovarian and 1.7 µM in the assay on SK-MEL-5 melanoma.
On to `Cc1c(Cl)cccc1NC(=O)c1sc2nc3c(cc2c1N)CCCCCC3`, for which the GI50 with MCF7 breast is 0.149 µM; in the assay on HOP-92 NSCLC, 0.164 µM; in the assay on COLO 205 colon it was 0.285 µM; in the assay with SR leukemia it was 0.101 µM; in the assay with RPMI-8226 leukemia, 0.166 µM; in the assay with NCI-H522 lung, 0.116 µM. Moreover, the values for the GI50 in the assay on OVCAR-8 ovarian, in the assay on IGROV1 ovarian and with SK-MEL-5 melanoma were 0.286 µM, 0.426 µM and 0.177 µM, respectively. Further, the concentration for total growth inhibition (TGI) in the assay with MCF7 breast is over 50 µM; in the assay with HOP-92 NSCLC, 16.1 µM; in the assay on COLO 205 colon it was over 50 µM; with SR leukemia it was over 50 µM; in the assay with RPMI-8226 leukemia, over 50 µM; with NCI-H522 lung it was 1.07 µM. Also, the TGI in the assay on OVCAR-8 ovarian is over 50 µM; with IGROV1 ovarian it was over 50 µM; in the assay on SK-MEL-5 melanoma, 10.5 µM.
As for `Cc1c(CN2CCC(Nc3ncnc4sc(CC(F)(F)F)cc34)CC2)ccc2c1cc(C#N)n2Cc1cn[nH]c1`, the GI50 in the assay on MCF7 breast is 1.59 µM and 2.01 µM; in the assay on HOP-92 NSCLC, 3.81 µM and 1.09 µM; in the assay with SNB-75 CNS it was 8.38 µM and 2.47 µM; in the assay on COLO 205 colon, 1.64 µM and 2.05 µM; in the assay with SR leukemia, 0.571 µM and 1.36 µM; in the assay on RPMI-8226 leukemia, 0.832 µM and 0.896 µM. In addition, the GI50 was 3.77 µM and 5.24 µM in the assay with NCI-H522 lung; 5.07 µM and 6.1 µM in the assay with OVCAR-8 ovarian; 5.23 µM and 23.8 µM with IGROV1 ovarian; 0.967 µM and 0.958 µM in the assay with SK-MEL-5 melanoma. For the same compound, the TGI was 3.75 µM and 8.6 µM in the assay with MCF7 breast; 25.1 µM and > 25.9 µM in the assay on HOP-92 NSCLC; 26.1 µM and 27.7 µM with SNB-75 CNS; 3.7 µM and 9.53 µM with COLO 205 colon; 3.68 µM and 5.19 µM in the assay on SR leukemia; 4.47 µM with RPMI-8226 leukemia. Further, the TGI with NCI-H522 lung was 23.2 µM and > 27.5 µM; in the assay on OVCAR-8 ovarian, 21.8 µM; in the assay on IGROV1 ovarian, 26.1 µM and > 100 µM; in the assay on SK-MEL-5 melanoma, 2.61 µM and 3.02 µM.
In the case of `Cc1cc(-c2nc3ccc(O)cc3s2)ccc1N`, the GI50 is 56.5 µM in the assay on MCF7 breast; over 100 µM with HOP-92 NSCLC; 15.8 µM in the assay with SNB-75 CNS; over 100 µM with COLO 205 colon; 22 µM in the assay on SR leukemia; 30 µM in the assay with NCI-H522 lung. The figures for the GI50 in the assay on OVCAR-8 ovarian, with IGROV1 ovarian and in the assay on SK-MEL-5 melanoma were over 100 µM, 47.5 µM and 52.1 µM, respectively. Further, the TGI with MCF7 breast is over 100 µM; in the assay with HOP-92 NSCLC, over 100 µM; with SNB-75 CNS, 71 µM; in the assay with COLO 205 colon, over 100 µM; in the assay with SR leukemia, over 100 µM; in the assay with NCI-H522 lung, over 100 µM. Further, the concentration for total growth inhibition (TGI) with OVCAR-8 ovarian, in the assay on IGROV1 ovarian and with SK-MEL-5 melanoma was over 100 µM in each case.
